Patent US7732596B2, “Fused heterocycle derivative, medicinal composition containing the same, and medicinal use thereof” (Kissei Pharmaceutical Co., Ltd., priority 2004, dated 2010)

Experiments:
human SGLT1 = molecular target: T1, human SGLT1 (Homo sapiens, UniProt P13866); experiment: Assay for inhibitory effects on human SGLT1 activity (uptake of methyl-α-D-glucopyranoside in CS1-5-11D cells); assay type: cell-based; settings: CHO-K1 cells stably expressing human SGLT1 (CS1-5-11D), 1 mM 14C-α-MG uptake, 37° C., 1 hour
T1 construct: expressed in transfected cells
T1 sequence (P13866 1-664): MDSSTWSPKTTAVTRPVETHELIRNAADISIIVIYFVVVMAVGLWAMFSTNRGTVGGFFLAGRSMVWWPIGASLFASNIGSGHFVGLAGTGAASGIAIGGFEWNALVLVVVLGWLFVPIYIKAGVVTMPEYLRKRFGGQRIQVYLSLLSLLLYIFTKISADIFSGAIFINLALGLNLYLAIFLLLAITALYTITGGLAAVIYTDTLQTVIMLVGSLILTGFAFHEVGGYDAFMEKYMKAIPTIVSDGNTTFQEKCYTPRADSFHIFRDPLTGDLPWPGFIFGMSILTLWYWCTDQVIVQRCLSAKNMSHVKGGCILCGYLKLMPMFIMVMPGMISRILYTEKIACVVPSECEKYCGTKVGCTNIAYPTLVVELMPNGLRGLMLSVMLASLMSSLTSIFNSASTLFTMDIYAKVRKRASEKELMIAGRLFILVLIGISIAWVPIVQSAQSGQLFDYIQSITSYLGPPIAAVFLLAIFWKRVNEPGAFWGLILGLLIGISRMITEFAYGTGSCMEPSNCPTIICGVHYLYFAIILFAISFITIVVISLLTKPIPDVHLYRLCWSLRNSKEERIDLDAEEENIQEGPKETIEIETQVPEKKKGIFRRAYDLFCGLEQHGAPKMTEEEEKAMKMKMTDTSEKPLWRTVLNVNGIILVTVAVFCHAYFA
Experimental: Assay for Inhibitory Effects on Human SGLT1 Activity
1) Cloning and Construction of the Vector Expressing Human SGLT1
The cDNA library was prepared for PCR amplification by reverse transcription from total RNA deprived from human small intestine (Ori gene) using oligo-dT as a primer. Using this cDNA library as a template, the DNA fragment coding 1 to 2005 bp of human SGLT1 (ACCESSION: M24847), which was reported by Hediger et al., was amplified by PCR method and inserted into the multi-cloning site of pcDNA3.1 (−) (Invitrogen). The DNA sequence inserted was perfectly matched to the previously reported sequence.
2) Establishment of Cell Line Stably Expressing Human SGLT1
The expression vector of human SGLT1 was digested by Sca I into a linear DNA. The linear DNA was transfected into CHO-K1 cells by means of lipofection (Effectene Transfection Reagent: QIAGEN). Neomycin resistant cell lines were selected by culture in the medium containing G418 (1 mg/mL, LIFE TECHNOLOGIES), and then the activity against the uptake of methyl-α-D-glucopyranoside was measured by the method described below. […] CS1-5-11D cells were cultured in the presence of G418 at 200 μg/mL. […]
CS1-5-11D cells were seeded into a 96-well culture plate at a density of 3×10^4 cells/well and cultured for 2 days, and were used in the uptake assay. […] Radioactivity was measured by means of micro-scintillation counter TopCount (Packard). […]

human SGLT2 = molecular target: T2, human SGLT2 (Homo sapiens, UniProt P31639); experiment: Assay for inhibitory effects on human SGLT2 activity (uptake of methyl-α-D-glucopyranoside in CS2-5E cells); assay type: cell-based; settings: CHO-K1 cells stably expressing human SGLT2 (CS2-5E), 1 mM 14C-α-MG uptake, 37° C., 1 hour
T2 construct: expressed in transfected cells
T2 sequence (P31639 1-672): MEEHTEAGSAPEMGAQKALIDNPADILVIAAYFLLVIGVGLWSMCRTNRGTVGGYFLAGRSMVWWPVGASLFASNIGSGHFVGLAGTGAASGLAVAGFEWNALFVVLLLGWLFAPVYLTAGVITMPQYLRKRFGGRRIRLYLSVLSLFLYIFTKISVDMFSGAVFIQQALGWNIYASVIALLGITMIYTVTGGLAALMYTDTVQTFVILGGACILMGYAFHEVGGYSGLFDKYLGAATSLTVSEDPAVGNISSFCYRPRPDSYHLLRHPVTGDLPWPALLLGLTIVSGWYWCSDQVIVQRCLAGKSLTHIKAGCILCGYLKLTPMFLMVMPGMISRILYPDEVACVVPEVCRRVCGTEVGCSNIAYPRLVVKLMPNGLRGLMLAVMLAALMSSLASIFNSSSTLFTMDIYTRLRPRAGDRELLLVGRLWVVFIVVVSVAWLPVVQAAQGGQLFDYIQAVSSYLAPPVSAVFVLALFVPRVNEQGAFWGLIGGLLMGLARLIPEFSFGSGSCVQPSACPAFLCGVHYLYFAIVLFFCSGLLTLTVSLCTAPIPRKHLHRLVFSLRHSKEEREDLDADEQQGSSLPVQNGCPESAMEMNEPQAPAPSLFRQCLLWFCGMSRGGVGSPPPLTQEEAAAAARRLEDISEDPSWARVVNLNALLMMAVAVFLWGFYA
Experimental: Assay for Inhibitory Effects on Human SGLT2 Activity 1) Cloning and Construction of the Vector Expressing Human SGLT2 The cDNA library was prepared for PCR amplification by reverse transcription from total RNA deprived from human kidney (Ori gene) using oligo-dT as a primer. Using this cDNA library as a template, the DNA fragment coding 2 to 2039 bp of human SGLT2 (ACCESSION: M95549, M95299), which was reported by R. G. Wells et al., was amplified by PCR method and inserted into the multi-cloning site of pcDNA3.1 (−) (Invitrogen). The DNA sequence inserted was perfectly matched to the previously reported sequence. 2) Establishment of Cell Line Stably Expressing Human SGLT2 The expression vector of human SGLT2 was digested by Sca I into a linear DNA. The linear DNA was transfected into CHO-K1 cells by means of lipofection (Effectene Transfection Reagent: QIAGEN). Neomycin resistant cell lines were selected by culture in the medium containing G418 (1 mg/mL, LIFE TECHNOLOGIES), and then the activity against the uptake of methyl-α-D-glucopyranoside was measured by the method described below. […] CS2-5E cells were cultured in the presence of G418 at 200 μg/mL. 3) Measurement of the Inhibitory Activity Against the Uptake of Methyl-α-D-glucopyranoside (α-MG) CS2-5E cells were seeded into a 96-well culture plate at a density of 3×10^4 cells/well and cultured for 2 days, and were used in the uptake assay. A mixture of non-labeled (Sigma) and ^14C-labeled α-MG (Amersham Pharmacia Biotech) was added to the uptake buffer (pH 7.4; containing 140 mM sodium chloride, 2 mM potassium chloride, 1 mM calcium chloride, 1 mM magnesium chloride, […] and 5 mM tris(hydroxymethyl)aminomethane) at the final concentration of 1 mM. […] Radioactivity was measured by means of micro-scintillation counter TopCount (Packard). One hundred % was set to the difference between the uptake in the control group and the basal uptake, and the uptake of methyl α-D-glucopyranoside at each drug concentration were calculated. […]

IC50 (human SGLT1)	IC50 (human SGLT2)	Compound
220 nM	58 nM	OC[C@H]1O[C@@H](c2cc3c(CCc4ccccc4)cccc3s2)[C@H](O)[C@@H](O)[C@@H]1O [Example 1, 2-(β-D-Glucopyranosyl)-4-(2-phenylethyl)benzo[b]thiophene]
	2 nM	Cc1ccc(Cc2cccc3cc([C@@H]4O[C@H](CO)[C@@H](O)[C@H](O)[C@H]4O)sc23)cc1 [Example 3, 2-(β-D-Glucopyranosyl)-7-(4-methylbenzyl)benzo[b]thiophene]
	130 nM	OC[C@H]1O[C@@H](c2cc3cccc(CCc4ccccc4)c3s2)[C@H](O)[C@@H](O)[C@@H]1O [Example 2, 2-(β-D-Glucopyranosyl)-7-(2-phenylethyl)benzo[b]thiophene]
